Source: patent US6855519B2, “Methods for enhancing the production of interferon in cell culture” (The Regents of the University of California, priority 1995, dated 2005)

Legend:
Type in all cases: cell-based
[1] = system: U937-PKR+ cells; test: Interferon induction in U937-PKR+ cells (IFN assay of culture supernatants)
Method: (§1) FIG. 2. Interferon induction in U937-PKR+ cells and control U937-neo cells. U937-PKR+ cells and U937-neo cells (0.5×10^6/ml) were cultured in RPMI 1640 medium, supplemented with 5% fetal bovine serum. The cells were pretreated (“primed”) with or without 10 nM PMA for 20 hrs followed by induction with 10 μg/ml poly r(I):poly r(C) or with 0.1 TCID50/cell EMCV for 20 hrs. Twenty-four hours after induction, culture supernatants were collected and assayed for IFN-α. The open bars indicate U937-neo cells, the hatched bars indicate U937-PKR+ cells. The experimental groups indicate different treatments: 1-no treatment; 2-poly r(I):poly r(C) induction alone; 3-EMCV induction alone; 4-PMA priming alone; 5-PMA priming and poly r(I):poly r(C) induction; 6-PMA priming and EMCV induction.
(§2) The levels of IFN-α in the preparations can be determined by titrating for antiviral activity on L929 (murine fibroblast) cells against National Institute of Allergy and Infectious Diseases reference standard G-023-901-527 (Lau et al. J. Clin. Invest. 82:1415-1421 1988). In this technique, 5×10^4 L929 cells are seeded into each well of 96-well microtiter plates and then incubated with two-fold serial dilutions of culture supernatants for 16 hr. The cells are subsequently challenged with EMCV or Sendai virus (0.1 or 0.01 TCID per cell). Virus-induced cytopathic effects were assessed by microscopic examination and by staining cells with 0.1% crystal violet in 5% ethanol solutions. The IFN titer is defined as the reciprocal of the highest dilution of culture supernatants capable of protecting 50% of the cells from viral-induced cytopathic effects.
U937-PKR+ cells and U937-neo cells were cultured in RPMI 1640 medium, supplemented with fetal bovine serum. The cells were pretreated with or without phorbol myristate acetate (PMA) (10 nM) for 20 hr and with or without subsequent stimulation by poly r(I):r(C), 10 ug/ml, for 20 hr. Twenty-four hr after the stimulation with poly r(I):r(C), culture supernatants were collected for IFN assays.

[2] = system: U937-neo cells; test: Interferon induction in control U937-neo cells (IFN assay of culture supernatants); settings: inducer 10 μg/ml for 20 hr, either with or without 10 nM PMA priming
Method: as §1
as §2, with “The cells are subsequently challenged with EMCV or Sendai virus (0.1 or 0.01 TCID per cell).” left out, “The IFN titer is defined as the reciprocal of the highest dilution of culture supernatants capable of protecting 50% of the cells from viral-induced cytopathic effects.” left out

[3] = system: U937-PKR+ cells; test: Trypan blue exclusion viability assay following induction
Description: Following induction by poly r(I):poly r(C), the U937-PKR+ cells were examined for viability using a trypan blue exclusion assay. […] Thus, the U937-PKR+ cells can be recycled for continuous production of IFN.

| Molecule | IFN production ([1]; PMA priming alone, no EMCV or poly r(I):poly r(C) inducer, compared with U937-neo cells) | IFN production ([1]; inducer 10 μg/ml for 20 hr, with or without 10 nM PMA priming) | IFN level ([1]; with 10 nM PMA priming 20 hr, then induction) [U/ml] | IFN-α synthesis [2] | viable cells [3] |
| --- | --- | --- | --- | --- | --- |
| CCCCCCCCCCCCCC(=O)O[C@@H]1[C@@H](C)[C@@]2(O)[C@@H](C=C(CO)C[C@]3(O)C(=O)C(C)=C[C@@H]23)[C@@H]2C(C)(C)[C@]12OC(C)=O [PMA, phorbol myristate acetate] | higher levels of IFNs than did U937-neo cells |  |  |  |  |
| poly r(I):poly r(C) |  | increased IFN production | 4000 | minimal synthesis of IFN-α | more than 95% |
